# What was measured:
# MRC-5 cells = assay: Inhibition of fibrosis gene expression induced by LPS, RT-PCR, MRC-5 cells; format: cell-based; details: 5 μg/ml LPS, peptide 10, 50, 100, 500 μM, 3 hours, RT-PCR (FIG. 6)
# Description: MRC-5 cells (lung fibroblast cells) were seeded at 2×10^5 cells/well in a 12-well plate and used in the experiment. After culturing for 1 day with a culture medium containing 10% FBS, the culture medium was replaced with a culture medium without containing FBS to induce starvation for 4 hours. Cells of a normal group without being treated with any substances, a group treated with 5 μg/ml of LPS (Sigma Aldrich) (negative control group), groups treated with 5 μg/ml of LPS and the peptide of Production Example 1 (10, 50, 100, 500 μM), and a group treated with 5 μg/ml of LPS and 10 μM of Dexamethasone (DEX) (positive control group) were treated with the above-described active substances and drugs respectively, and then RNA was extracted after 3 hours to carry out RT-PCR. RNA was extracted from MRC-5 cells using an easy-BLUE™ Total RNA extraction kit (Qiagen, Germany). The extracted RNA was converted into cDNA using RT-PCR premix (iNtRON Biotechnology, Seongnam, Korea). After preparing a reaction mixture with PCR premix (iNtRON Biotechnology, Seongnam, Korea) and primers for each gene, PCR was carried out using a PCR machine (Eppendorf, Germany). Next, the mRNA expression pattern was determined by agarose gel electrophoresis.
# BALB/c mice = assay: BLM-induced pulmonary fibrosis model, cell counts in bronchoalveolar lavage fluid; format: in vivo; details: BALB/c male mice, peptide 1 mg/mouse intranasal three times a week for 14 days, 21st day (FIG. 13b)
# Description: As shown in [Table 6] below, 8-week-old BALB/c male mice were divided into 4 groups of 5 mice each. On the 1st day, a Bleomycin solution ([…]/50 μl/mouse) was administered through the oropharynx to carry out one time of induction with BLM. Then, from the 7th day, the peptide of Production Example 1 (1 mg/mouse) was administered intranasally three times a week for 14 days, and Pirfeninone (2 mg/mouse) for a positive control group was administered orally three times a week for 14 days. On the 21st day of the induction with BLM, mice were sacrificed to obtain the bronchoalveolar lavage fluid and the lung tissue, which were used in the next analysis.
# The mouse subjected to the animal experiment was anesthetized, and then the treatment area was disinfected with 70% ethanol. […] The separated cells were resuspended in 0.5 ml of PBS, subsequently diluted with trypan blue solution at a 1:1 ratio, and then the total number of cells was counted using a hematocytometer. […] After staining, cells were observed and counted through a microscope, and then the number of immune cells with respect to the total number of cells was calculated to show the results as a graph. […]
# A549 cells = assay: Western blotting of LPS-induced inflammatory cytokine/signaling proteins, A549 cells; format: cell-based, human; details: LPS 5 μg/ml, peptide 10, 50, 100, 500 μM, 24 hours, Western blot (FIG. 4a, 4b)
# Description: A549 cells (human alveolar basal epithelial cells) were seeded at 3×10^5 cells/well in a 6-well plate and used in the experiment. After culturing for 1 day with a culture medium containing 10% FBS, the culture medium was replaced with a culture medium without containing FBS to induce starvation for 4 hours. Cells of a normal group without being treated with any substances, a group treated with LPS (5 μg/ml) (Sigma Aldrich) (negative control group), groups treated with LPS (5 μg/ml) and the peptide of Production Example 1 (10, 50, 100, 500 μM), and a group treated with LPS (5 μg/ml) and 10 μM of Dexamethasone (DEX) (positive control group) were treated with active substances and drugs respectively and then cultured for 24 hours. The cultured cells of each treatment group and control group were lysed by adding a lysis buffer, and then centrifugation was carried out at 4° C. at 12,000 rpm for 30 minutes to obtain proteins, which were subsequently quantified using a BCA Protein Assay kit (Sigma). The proteins were subjected to SDS-PAGE (sodium dodecyl sulfate-polyacrylamide gel electrophoresis) and then subjected to electrotransfer to a membrane. The membrane to which the proteins were attached was treated with 5% skim milk for blocking and then subjected to a reaction with a primary antibody overnight at 4° C. After washing with PBS-T, the membrane was subjected to a reaction with a secondary antibody at room temperature for 1 hour, washed again with PBS-T, and then visualized by a Western detection reagent (Elpis Biotech, Daejeon, Korea) using Gel Doc (Bio-Rad, Hercules, CA, USA). The antibodies used in the experiment are as follows. An Anti-IL-1β antibody: (Cell signaling technology (CST), USA), an anti-IL-6 antibody: (Santa Cruz Biotechnology, USA), an anti-COX2 antibody: (Santa Cruz Biotechnology, USA), an anti-Phospho-PI3K antibody: (Cell signaling technology (CST), USA), an anti-Phospho-AKT antibody: (Cell signaling technology (CST), USA), an anti-Phospho-ERK antibody: (Cell signaling technology (CST), USA), and an anti-β-Actin antibody: (Santa Cruz Biotechnology, USA).
sequence,measurement,setting,value
KYLLVHRPYYRR [peptide of Production Example 1],expression level of Collagen 1A1 gene,MRC-5 cells,decreases again the expression levels of the α-SMA and Collagen 1A1 genes in a concentration-dependent manner
same,expression level of α-SMA gene,MRC-5 cells,decreases again the expression levels of the α-SMA and Collagen 1A1 genes in a concentration-dependent manner
same,number of lymphocytes in bronchoalveolar lavage fluid,BALB/c mice,decreased the increased number of macrophages and the increased number of lymphocytes
same,number of macrophages in bronchoalveolar lavage fluid,BALB/c mice,decreased the increased number of macrophages
same,expression of COX2 (protein),A549 cells,decreased the expression levels of proteins in a concentration-dependent manner
same,expression of IL-1β (protein),A549 cells,decreased the expression levels of proteins in a concentration-dependent manner
same,expression of IL-6 (protein),A549 cells,decreased the expression levels of proteins in a concentration-dependent manner
same,expression of Phospho-AKT,A549 cells,decreased the expression levels of proteins in a concentration-dependent manner
same,expression of Phospho-ERK,A549 cells,decreased the expression levels of proteins in a concentration-dependent manner
same,expression of Phospho-PI3K,A549 cells,decreased the expression levels of proteins in a concentration-dependent manner
